Measured values: patent US20020002269A1, “ARTEMIN, A NEUROTROPHIC FACTOR” (priority 1998, published 2002)

B1: GDNF: recombinant human mature GDNF obtained from Genentech (protein, UniProt P39905 78-211, looked up)
Glial cell line-derived …: SPDKQMAVLPRRERNRQAAAANPENSRGKGRRGQRGKNRGCVLTAIHLNVTDLGLGYETKEELIFRYCSGSCDAAETTYDKILKNLSRNRRLVSDKVGQACCRPIAFDDDLSFLDDNLVYHILRKHSAKRCGCI

How the values were obtained:
[1] = test system: NBL-S neuroblastoma cell line; assay: BrdU cell proliferation assay in NBL-S neuroblastoma cells; assay type: cell-based; conditions: 50 ng/mL, 30 hrs after factor addition, FIG. 8D
Procedure: In another experiment, the ability of artemin to induce proliferation of the NBL-S neuroblastoma cell line was examined. NBL-S cells were plated at 5×10^4 cells/well on 48-well plates in standard medium, either without treatment or in the presence of 50 ng/mL of GDNF, artemin, or persephin. Actively dividing cells undergoing DNA synthesis 30 hrs after factor addition were detected using the BrdU (colorimetric) cell proliferation assay kit according to the manufacturer's instructions (Boehringer-Mannheim) and the data are shown in FIG. 8D.

[2] = test system: NLF cells transformed with GFRα3; assay: Ga14-Elk/Ga14-Luc reporter in NLF neuroblastoma cells transformed with GFRα3; assay type: cell-based; conditions: factor for 24 hours, low-serum medium, FIG. 10B
Procedure: (§1) Thus, to directly test which receptor combinations can form functional receptors for artemin, expression plasmids for the individual GFRA coreceptors together with the Ga14-Elk/Ga14-Luc reporter system were transiently transformed into fibroblasts that stably express RET. […]
(§2) NLF neuroblastoma cells, which naturally express GFRα2/RET (Tansey et al., submitted), or the RET-3T3 cells were plated at 85,000 cells/well in 12-well plates, and cotransfected with the reporter plasmids Ga14-Luc and CMV-Ga14-Elk (250 ng/well and 50 ng/well, respectively), CMV-lacZ (50 ng/well) for transfection normalization, one of the CMV-GFRA expression plasmids (500 ng/well), and pBluescript (650 ng/well) as carrier for a total of 1.5 μg DNA/well using the Superfect reagent (Qiagen) according to the manufacturer's instructions. […] Measurement of luciferase and β-galactosidase activity was measured using a luminometer and performed as described (Svaren et al., EMBO J 17:6010-6019, 1998). The average luciferase activity of duplicate samples was normalized to β-galactosidase activity of the cotransformed lacZ reporter, and fold activation was calculated by dividing the normalized activity in factor-treated cells by that in the no treatment control.

GFRα3/RET = molecular target: T1, GFRα3/RET (Homo sapiens, UniProt O60609+P07949); assay: Ga14-Elk/Ga14-Luc reporter in RET-3T3 fibroblasts transfected with GFRα3; assay type: cell-based; conditions: RET-3T3, 50 ng/ml for 6-8 hours, FIG. 10A
T1 construct: a fragment containing the complete coding region of human GFRα3 was PCR-amplified from a human pituitary cDNA library; expressed in transfected cells; host or cells: MG87 fibroblasts stably expressing human RET (RET-3T3), transiently transfected with pCB6-GFRα3
T1 sequence (O60609 32-374 limits assumed): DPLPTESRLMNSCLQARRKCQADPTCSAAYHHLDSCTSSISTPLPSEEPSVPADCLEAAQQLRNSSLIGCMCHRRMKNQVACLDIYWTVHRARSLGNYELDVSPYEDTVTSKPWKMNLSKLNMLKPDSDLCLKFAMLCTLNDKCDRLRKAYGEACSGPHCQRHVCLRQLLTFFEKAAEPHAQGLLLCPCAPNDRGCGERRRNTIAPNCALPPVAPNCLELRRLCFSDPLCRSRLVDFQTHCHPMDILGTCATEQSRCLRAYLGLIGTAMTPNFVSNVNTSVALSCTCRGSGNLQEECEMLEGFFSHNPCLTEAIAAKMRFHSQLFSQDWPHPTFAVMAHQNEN
T1 sequence (P07949 29-1114): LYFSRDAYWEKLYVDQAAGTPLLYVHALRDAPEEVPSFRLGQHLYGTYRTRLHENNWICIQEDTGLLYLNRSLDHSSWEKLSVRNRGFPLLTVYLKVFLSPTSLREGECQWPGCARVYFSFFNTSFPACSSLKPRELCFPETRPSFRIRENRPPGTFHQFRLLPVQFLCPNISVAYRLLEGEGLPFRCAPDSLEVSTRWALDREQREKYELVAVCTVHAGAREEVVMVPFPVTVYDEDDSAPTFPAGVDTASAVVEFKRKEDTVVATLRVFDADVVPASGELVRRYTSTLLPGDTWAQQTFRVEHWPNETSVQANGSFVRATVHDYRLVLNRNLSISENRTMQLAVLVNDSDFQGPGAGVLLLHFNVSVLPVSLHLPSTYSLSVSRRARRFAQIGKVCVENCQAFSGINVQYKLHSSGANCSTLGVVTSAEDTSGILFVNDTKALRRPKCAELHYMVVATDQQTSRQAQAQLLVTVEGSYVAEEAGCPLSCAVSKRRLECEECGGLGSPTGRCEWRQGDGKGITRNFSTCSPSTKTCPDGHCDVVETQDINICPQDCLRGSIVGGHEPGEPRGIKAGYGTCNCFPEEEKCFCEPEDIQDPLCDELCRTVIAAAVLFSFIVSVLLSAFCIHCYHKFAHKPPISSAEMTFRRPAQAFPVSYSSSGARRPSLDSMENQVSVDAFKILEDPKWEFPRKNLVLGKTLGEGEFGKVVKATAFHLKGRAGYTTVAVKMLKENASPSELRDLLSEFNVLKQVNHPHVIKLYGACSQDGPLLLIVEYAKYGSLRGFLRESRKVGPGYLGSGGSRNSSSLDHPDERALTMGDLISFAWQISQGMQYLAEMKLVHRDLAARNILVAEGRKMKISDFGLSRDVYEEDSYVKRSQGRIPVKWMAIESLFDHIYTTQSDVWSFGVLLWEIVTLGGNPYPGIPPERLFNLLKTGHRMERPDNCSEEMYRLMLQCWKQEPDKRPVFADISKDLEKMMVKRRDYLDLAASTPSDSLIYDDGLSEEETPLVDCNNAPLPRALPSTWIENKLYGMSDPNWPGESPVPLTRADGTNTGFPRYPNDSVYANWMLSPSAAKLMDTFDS
Procedure: as §1, §2

[3] = test system: superior cervical ganglion (SCG) neurons; assay: Survival of cultured superior cervical ganglion neurons after NGF withdrawal; assay type: cell-based, rat; conditions: 50 ng/ml, FIG. 7E
Procedure: Each GDNF ligand family member consisted of the human mature amino acid sequence and was produced by standard recombinant DNA methods. Recombinant GDNF, neurturin and persephin were obtained from Genentech while recombinant artemin was produced as described in Example 3.
The cultures were performed using standard methods described elsewhere (Kotzbauer et al., Neuron 12:763-773, 1994; Kotzbauer et al., Nature 384:467-470, 1996; Milbrandt et al., Neuron 20:245-253, 1998). […] Cultures were maintained for 3 days, after which they were fixed in 4% paraformaldehyde and stained with toluidine blue, and surviving neurons were counted. For nodose ganglion and dorsal root ganglion neuron cultures, dissociated neurons were plated directly into NGF (for dorsal root ganglia), or BDNF (for nodose ganglia, 100 ng/ml) or one of the GDNF ligands in serum-containing medium (AM50 with anti-NGF antibodies), and cells surviving after 3 days in culture were counted as above. Trigeminal ganglia were dissected, dissociated, and plated directly into medium containing NGF or the indicated GDNF ligands, and the number of surviving cells was assessed after 3 days in vitro. […]

[4] = test system: NLF cells transformed with GFRα2; assay: Ga14-Elk/Ga14-Luc reporter in NLF neuroblastoma cells transformed with GFRα2; assay type: cell-based; conditions: factor for 24 hours, low-serum medium, FIG. 10B
Procedure: as §1, §2

| Molecule | proliferation of NBL-S cells (BrdU incorporation) [1] | response of NLF cells transformed with GFRα3 (luciferase reporter) [2] | activation of RET signaling in cells expressing GFRα3/RET (luciferase reporter) (GFRα3/RET) | survival of SCG neurons ([3]; 3 days after 5 days in NGF, anti-NGF antibodies) | number of SCG neurons supported compared with GDNF or neurturin [3] | response of NLF cells transformed with GFRα2 (luciferase reporter) [4] |
| --- | --- | --- | --- | --- | --- | --- |
| artemin: recombinant mature human artemin (FIG. 3A, SEQ ID NO:3) with 8-histidine tag, produced in E. coli; GDNF family neurotrophic factor | stimulated proliferation of NBL-S cells | allowed the cells to respond to artemin stimulation | able to activate GFRα3/RET | supported the survival of SCG neurons | fewer neurons were supported by artemin than by GDNF or neurturin | not GFRα2 |
| B1 | stimulated proliferation of NBL-S cells | decreased the ability of the cells to respond to GDNF | not GFRα3/RET |  |  |  |
